Assay [1] relates to Rat DRG neurones. Put plainly: 45Ca calcium uptake assay in primary cultures of DRG neurones. In kind it is cell-based. As to the method:
Primary cultures of adult DRG neurones are prepared according to standard protocols [Wood et al., J. Neuroscience 8:3208-3220 (1988)]. Cells are plated at a density of 2000 per well on 96 well view plates pre-coated with poly-ornithine and laminin and cultured in Hams F14 supplemented with 100 ng/ml NGF for four days. On the day of the assay, the cells are washed eight times in a Denley cell washer with calcium/magnesium free HBSS plus 10 mM HEPES, pH7.4. After washing the wells contain approximately 75 μl of buffer. […] For negative control, capsaicin is omitted. Samples are incubated at RT for 10 min, then washed four times with HBSS/10 mM HEPES pH 7.4. The remaining buffer is removed from the wells and replaced with 25 μl of 0.1% SDS. After about 10 min 200 μl of Microscint 40 scintillant is added and samples are counted on a Packard Topcount.

A further assay addresses T1, human vanilloid receptor (Homo sapiens, UniProt Q8NER1).
T1 construct: expressed in transfected cells
Briefly: Activation of human vanilloid receptor expressed in mammalian cells. It is filed as cell-based.

Assay [2] deals with Rat DRG neurones. The conditions noted are these: inhibition of capsaicin response; from Wood et al (1988); read-out: IC50 (nM) (Ca uptake assay) Rat DRG neurones; cited from earlier work.
In the next assay the target is T2, rVR1 (Rattus norvegicus, UniProt O35433).
T2 construct: expressed in transfected cells
Briefly: Aequorin luminescence assay, rVR1 in CHO cells. In kind it is cell-based. As to the method: (§1) All the plates for use in a day are set up at the same time. The first plate is used in the assay after 2.5 h incubation with coelenterazine h. Subsequent plates are used at about 10 min intervals. […] At the start of the assay, the medium containing coelenterazine h is removed and replaced with 100 μl of HBSS buffered to pH 7.4 with 10 mM HEPES containing test compounds where appropriate. Cells are incubated for at least 10 min at RT. They are then placed in the measuring chamber of a luminometer (Wallac Microbeta Jet). Agonist is injected in a volume of 20 μl HBSS and the luminescence signal is collected for 20 sec.

In assay [3] the target is T3, hVR1 (Homo sapiens, UniProt Q8NER1).
T3 construct: expressed in transfected cells
Put plainly: Aequorin luminescence assay, hVR1 in CHO cells. In kind it is cell-based. As to the method:
as §1

Assay [4] deals with T3, hVR1. Briefly: Fluorometric Fluo-3 assay using the FLIPR, hVR1 in CHO cells. In kind it is cell-based.
Procedure: Cells resulting from Examples A1 or A2 are plated at a density of 50,000 cells/well in Costar Viewplates. The cells are incubated at 37° C. in a humidified atmosphere (5% CO2/95% air) for 24 h. Medium is removed by flicking the plates and replaced with 100 μl HBSS containing 2 μM Fluo-3, AM (Molecular Probes) in the presence of 2.5 mM probenicid (Sigma) and 0.02% pluronic acid (Molecular Probes). The cells are incubated at 37° C. in a humidified atmosphere (5% CO2/95% air) for 1 h. Plates are flicked to remove excess of Fluo-3, AM, washed twice with HBSS and refilled with 100 μl of HBSS containing screening compounds. Incubation in the presence of screening compounds lasts between 10 and 20 min. Plates are then placed in the cell plate stage of the FLIPR (Molecular Devices, Sunnyvale, Calif., USA). A baseline consisting in 5 measurements of 0.4 sec each (laser: excitation 488 nm at 0.6 W, CCD camera opening of 0.4 sec) is recorded.
Where [5] appears, read: inhibition of capsaicin response, capsaicin 1 μM.

Where two headings read alike, the source gives them in different places.

T3 sequence (Q8NER1 whole entry): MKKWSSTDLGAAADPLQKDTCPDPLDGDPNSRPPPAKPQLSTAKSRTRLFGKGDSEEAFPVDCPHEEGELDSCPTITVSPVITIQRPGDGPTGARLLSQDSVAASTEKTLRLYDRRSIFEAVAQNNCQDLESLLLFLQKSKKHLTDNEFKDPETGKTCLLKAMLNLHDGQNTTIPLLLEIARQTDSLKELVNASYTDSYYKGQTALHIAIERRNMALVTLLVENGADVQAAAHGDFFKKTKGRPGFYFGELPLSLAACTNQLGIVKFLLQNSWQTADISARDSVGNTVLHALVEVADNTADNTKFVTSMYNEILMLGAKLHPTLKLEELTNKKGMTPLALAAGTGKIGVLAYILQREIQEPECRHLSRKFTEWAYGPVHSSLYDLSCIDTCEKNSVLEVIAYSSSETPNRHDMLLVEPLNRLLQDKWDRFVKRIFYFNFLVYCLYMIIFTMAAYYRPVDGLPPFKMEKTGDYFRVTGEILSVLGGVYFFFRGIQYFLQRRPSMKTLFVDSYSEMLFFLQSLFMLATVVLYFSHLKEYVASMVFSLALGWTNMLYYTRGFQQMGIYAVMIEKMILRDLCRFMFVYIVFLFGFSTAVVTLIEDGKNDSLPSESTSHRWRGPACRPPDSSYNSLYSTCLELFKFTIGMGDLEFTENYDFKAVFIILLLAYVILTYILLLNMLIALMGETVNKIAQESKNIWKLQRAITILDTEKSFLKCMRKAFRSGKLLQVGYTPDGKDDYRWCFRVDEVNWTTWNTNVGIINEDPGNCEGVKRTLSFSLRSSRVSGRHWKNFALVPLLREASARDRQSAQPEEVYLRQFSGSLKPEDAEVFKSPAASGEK
T2 sequence (O35433 whole entry): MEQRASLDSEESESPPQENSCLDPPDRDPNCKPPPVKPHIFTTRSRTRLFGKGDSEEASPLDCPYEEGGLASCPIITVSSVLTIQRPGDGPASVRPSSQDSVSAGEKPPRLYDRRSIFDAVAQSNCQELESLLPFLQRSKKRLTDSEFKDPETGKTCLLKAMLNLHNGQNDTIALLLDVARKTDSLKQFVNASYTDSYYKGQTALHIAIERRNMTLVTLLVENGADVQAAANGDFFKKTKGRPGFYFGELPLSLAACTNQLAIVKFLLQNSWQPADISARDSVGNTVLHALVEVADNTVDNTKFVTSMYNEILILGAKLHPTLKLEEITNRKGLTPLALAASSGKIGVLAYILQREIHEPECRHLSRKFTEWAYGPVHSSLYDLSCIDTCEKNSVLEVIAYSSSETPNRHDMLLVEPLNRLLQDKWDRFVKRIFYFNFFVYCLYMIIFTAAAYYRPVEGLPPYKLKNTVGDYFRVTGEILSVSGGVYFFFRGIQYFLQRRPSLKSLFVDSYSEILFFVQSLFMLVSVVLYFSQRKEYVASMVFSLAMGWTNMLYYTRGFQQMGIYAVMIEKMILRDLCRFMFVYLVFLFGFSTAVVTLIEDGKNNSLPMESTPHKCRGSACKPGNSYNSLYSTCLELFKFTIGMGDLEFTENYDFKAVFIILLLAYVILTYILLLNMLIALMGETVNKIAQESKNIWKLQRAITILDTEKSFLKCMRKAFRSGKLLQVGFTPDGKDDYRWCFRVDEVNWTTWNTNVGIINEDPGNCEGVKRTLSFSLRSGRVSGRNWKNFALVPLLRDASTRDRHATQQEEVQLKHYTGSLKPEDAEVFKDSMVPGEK
T1 sequence (Q8NER1 whole entry): as the sequence (Q8NER1 whole entry) above

Consider `COc1cc(CNC(=O)CCCC/C=C/C(C)C)ccc1O` [Capsaicin], for which the EC50 with Rat DRG neurones [1] (10 min) stood at 170 ± 19 nM. Moreover, the “Activation of the human vanilloid receptor” value on human vanilloid receptor is listed as “activated by capsaicin”.

For the compound `N.N.N.N.N.N.N.N.N.N.N.N.N.N.[Cl-].[Cl-].[Cl-].[Cl-].[Cl-].[Cl-].[O-2].[O-2].[Ru+3].[Ru+3].[Ru+4]` [Rr, Ruthenium red], the concentration for half-maximal inhibition (IC50) with Rat DRG neurones [2] is 50 nM; at rVR1 (setting [5]) it was 18 ± 8.3 nM; against hVR1 [3] (setting [5]), 220 ± 32 nM. The “Blocking of capsaicin responses” value on hVR1 [3] (measured as in Example B1, stated generally for the assays) is on record as “effective blocker of capsaicin responses”.

`Oc1cc2c(cc1O)CN(C(=S)NCCc1ccc(Cl)cc1)CCC2` [Cz, Capsazepine]: the IC50 on hVR1 [4] is 130 ± 32 nM; against rVR1, 320 ± 110 nM; in the assay on Rat DRG neurones [1] it was 800 ± 40 nM; against hVR1 [3] it was 120 ± 12 nM. Besides, the “Block of activation by capsaicin, temperatures greater than 42° C. and pH less than 5.5” value on human vanilloid receptor is given as “blocked substantially or completely”.

The values above are taken from US6406908B1, “Vanilloid receptor” (Novartis AG, priority 1999, dated 2002).
